# Patent US9060997B2, “Antifolate compounds for the treatment of melanoma” (UNIVERSIDAD DE MURCIA, priority 2007, dated 2015)
# pIC50, pKi: −log10 of the molar value.
# How the values were obtained:
# rHDHFR = target: T1, rHDHFR (Homo sapiens, UniProt P00374); test: rHDHFR binding: fluorescence titration and stopped-flow fluorescence
# T1 construct: purchased Sigma
# T1 sequence (P00374 1-187): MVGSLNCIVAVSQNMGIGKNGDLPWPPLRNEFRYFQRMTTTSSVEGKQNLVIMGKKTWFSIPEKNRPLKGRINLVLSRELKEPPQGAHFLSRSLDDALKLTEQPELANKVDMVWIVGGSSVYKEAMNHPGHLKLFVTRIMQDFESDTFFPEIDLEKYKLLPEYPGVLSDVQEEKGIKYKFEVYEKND
# Protocol: The experiments were carried out in a buffer containing 2-(N-morpholino)ethanesulfonic acid (Mes, 0.025 M), sodium acetate (0.025 M), tris-(hydroxymethyl)aminomethane (Tris 0.05 M), and NaCl (0.1 M) at pH 7.4 and 25° C. in the presence of QM and rHDHFR (0.5 μM).
# Stopped-flow fluorescence experiments were carried out at pH 7.4 and 25° C. using an enzyme concentration of 0.25 μM. The reaction of rHDHFR with inhibitors was observed under pseudo-first order conditions by fluorescence at 340 nm (excitation at 290 nm). The data points s are the means of at least 3 (normally 5) repeat observations±SD. […] Aliquots (20 μl) of the incubation mixture was then diluted 50-fold into a reaction mixture containing the buffer, NADPH (100 μM), and DHF (10 μM) to give a final enzyme concentration of 1.5 nM.
# The activity of rHDHFR was determined at 25° C. by following the decrease in the absorbance of NADPH and DHF at 340 nm (ε=11800 M-1 cm−1) (Stone and Morrison, 1986). Progress curves were obtained under ordered conditions ([NADPH]>>[DHF]). rHDHFR inhibition constants were calculated as described by Navarro-Perán et al., 2005b. The dissociation constant for the binding of inhibitors to free rHDHFR was determined at 25° C. by fluorescence titration in an automatic-scanning Perkin-Elmer LS50B spectrofluorimeter. Fluorescence emission spectra were recorded when rHDHFR fluorescence was excited at 290 nm. Stopped-flow fluorescence experiments were carried out using an Applied Photophysics Ltd. Pi-Star 180 spectrometer with a stopped-flow unit at 25° C.
# MCF7 cells = test: MTT cell proliferation assay, MCF7; type: cell-based; conditions: Homo sapiens, 144 h; MCF7, 6 days of treatment
# Protocol: Four human cancer cells lines (SkMel-28, MCF7, H1264 and Caco-2) were obtained from the American Type Tissue Culture Collection (ATCC) and were maintained in appropriate culture mediums supplemented with 10% fetal calf serum (FCS) and antibiotics, under standard tissue culture conditions (e.g. modified Eagle's medium (MEM) containing 1 mM sodium pyruvate and 10% fetal bovine serum (FES) under 5% CO2/95% air atmosphere.). Cell injury was evaluated by a colorimetric assay for mitochondrial function using the 3-(4,5-dimethylthiazolyl-2)-2,5-diphenyltetrazolium bromide (MTT) cell proliferation assay. For this assay cells were plated in a 96-well plate at a density of 1000 cells/well and grown until they reached 50-60% confluence. Human epidermal melanocytes (HeM) were supplied by Gentaur and were cultured in HAM-F10 medium supplemented with 10% FCS, antibiotics and the human melanocyte growth supplement (Gentaur).
# [1] = system: Reduced folate carrier (RFC) mRNA; test: Real-time PCR of RFC expression in SkMel-28; type: cell-based, human; conditions: 50 μM, after 24 h of treatment
# Protocol: Data were obtained by real time PCR and compared with the relative expression of RFC in normal human skin (zero relative gene expression). Zero time represents the level of RFC in untreated SkMel-28 cells.
# PolyA+ mRNA from human adult skin was purchased from Invitrogen. SkMel-28 and HEM polyA+ mRNA was extracted from 5×10^6 cells using the Illustra Quick Prep Micro mRNA purification kit (GE Healthcare). mRNA (200 ng) was used to synthesize cDNA using SuperScript First-Strand Synthesis System (Invitrogen). PCR amplification of 2 μL of the cDNA strand generated was carried out in a total volume of 50 μL using an Eppendorf Mastercycler Thermal Cycler. Samples were amplified by 40 cycles at 95° C. (1 min), 62° C. (1 min) and 72° C. (1 min). The amplified PCR products were subjected to electrophoresis in 3% agarose gel and stained with ethidium bromide.
# cDNA samples (1 μL) were used for real-time PCR in a total volume of 20 μL using SYBR Green Reagent (Applied Biosystems) and specific primers on a 7500 Real Time PCR System of Applied Biosystems. […] Amplification of target gene sequences were compared against serial dilutions of know quantities of their purified cDNA fragments, and normalized to the abundance of the house-keeping gene β-actin.
# DHFR mRNA and protein = test: DHFR mRNA (real-time PCR) and protein in SkMel-28; type: cell-based, human; conditions: SkMel-28, 50 μM
# Protocol: Data were obtained by real time PCR and compared with the relative expression of DHFR in HeM cells (zero relative gene expression). Zero time represents the level of DHFR in untreated SkMel-28 cells.
# cDNA samples (1 μL) were used for real-time PCR in a total volume of 20 μL using SYBR Green Reagent (Applied Biosystems) and specific primers on a 7500 Real Time PCR System of Applied Biosystems. The PCR amplification cycles included denaturation 95° C., 15 min; to activate HotStar Taq DNA polymerase and to minimize primer-dimer contribution), and amplification [over 40-50 cycles including denaturation (94° C.; 30 s), annealing (55° C.; 30 s), and extension (72° C.; 1 min)]. All PCR reactions were performed in triplicate and from at least two independent experiments. Non-RT control and negative control samples (without template) were processed in the same manner. […] Amplification of target gene sequences were compared against serial dilutions of know quantities of their purified cDNA fragments, and normalized to the abundance of the house-keeping gene β-actin.
# Protein lysates were prepared from specified cells, separated by SDS-polyacrylamide gel electrophoresis (PAGE), transferred to nitrocellulose membranes, and analyzed by immunoblotting. […] Bound antibodies were detected by chemiluminiscence (ECL Plus, GE Healthcare). […]
smiles,measurement,setting,value
"COc1cc(C(=O)O[C@@H]2Cc3c(O)cc(O)cc3O[C@@H]2c2ccc(O)c(O)c2)cc(OC)c1OC [TMECG, 3-O-(3,4,5-trimethoxybenzoyl)-(−)-epicatechin]",koff,"rHDHFR; calculated from KI=koff/kon, read-out: koff",0.29 s⁻¹
same,pKi,"rHDHFR; dissociation constant, free rHDHFR, fluorescence titration, pH 7.4, 25° C.",5.68
same,kon,"rHDHFR; stopped-flow fluorescence, pH 7.4, 25° C., read-out: kon",140000 M⁻¹ s⁻¹
same,pIC50,MCF7 cells,4.10
same,reduction in RFC expression,[1],more than 80%
same,DHFR mRNA and protein level,DHFR mRNA and protein,reduced DHFR mRNA and protein to normal levels
